In patent US20040028746A1, “Crystalline drug particles prepared using a controlled precipitation (recrystallization) process” (priority 2002, published 2004):

Tests used:
[1] = Average crystalline domain size and crystallinity by X-ray diffraction; assay type: physicochemical; conditions: comparative particles as received or wet-milled (Table B)
Protocol: As used herein the term “essentially crystalline” is defined to mean that the particles are at least 90% crystalline as measured using X-ray diffraction techniques.
0.3 g of the drug was dissolved in 6 ml of the organic solvent, which may contain 0.3 g of a stabilizer. The organic solution was injected at 2 degrees C. with vigorous stirring into 30.0 g of the aqueous phase, which may contain a second stabilizer. The solvent was stripped from the resulting slurry, and the slurry freeze dried to yield a powder. […] Average size of the crystalline domains was determined using X-ray diffraction as known by those skilled in the art of particle size measurement, using Jade XRD pattern processing software (v.6).
(§1) Dissolution was monitored for 5 minutes by the loss in turbidity.

[2] = Dissolution by turbidity method (loss in turbidity); assay type: physicochemical; conditions: loss in turbidity monitored for 5 minutes
Protocol: as §1, §1

Compound	Crystalline Domain [1] [Å]	Percent of Dissolution after 5 min. ([2]; Carbamazepine sample: deionized water) [%]	Percent of Dissolution after 5 min. ([2]; Danazol samples: deionized water plus sodium dodecyl sulfate) [%]
COc1ccc2cc([C@H](C)C(=O)O)ccc2c1 [compound 22, Naproxen]	646	–	–
NC(=O)N1c2ccccc2C=Cc2ccccc21 [compound 23, Carbamazepine]	475	100	–
C#C[C@]1(O)CC[C@H]2[C@@H]3CCC4=Cc5oncc5C[C@]4(C)[C@H]3CC[C@@]21C [compound 24, Danazol/USP 24]	404	–	91
